Reference: US9156840B2, “D2 antagonists, methods of synthesis and methods of use” (ALTOS THERAPEUTICS, LLC, priority 2010, dated 2015)
Structures can show the parent of a compound that is named as a salt.

Each compound was assayed against T1, human D2 receptor (Homo sapiens, UniProt P14416) (assay: D2 receptor radioligand binding assay (membranes of HEK-293 cells expressing human D2 receptor)). Details: radioligand displacement, HEK293 membranes, 37° C. for 120 minutes; read-out: Affinity Score (IC50 values for D2 on a scale of 1 through 5).
T1 construct: expressed in transfected cells; cDNA from Origene clones TC308892 and SC123573
T1 sequence (P14416 whole entry): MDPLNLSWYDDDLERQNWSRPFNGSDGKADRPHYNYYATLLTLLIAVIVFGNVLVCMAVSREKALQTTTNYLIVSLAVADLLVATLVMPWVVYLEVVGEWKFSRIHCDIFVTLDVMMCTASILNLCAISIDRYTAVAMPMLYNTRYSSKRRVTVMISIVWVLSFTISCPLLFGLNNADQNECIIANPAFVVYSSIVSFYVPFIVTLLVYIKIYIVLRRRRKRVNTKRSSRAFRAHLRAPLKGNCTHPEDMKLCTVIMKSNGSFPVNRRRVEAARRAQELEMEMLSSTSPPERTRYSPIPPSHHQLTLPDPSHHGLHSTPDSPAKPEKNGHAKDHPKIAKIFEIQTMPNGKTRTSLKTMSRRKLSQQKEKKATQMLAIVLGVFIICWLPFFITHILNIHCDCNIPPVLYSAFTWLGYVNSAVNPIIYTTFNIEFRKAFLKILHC
How it was run: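 Membranes from HEK-293 cells stably expressing human D2S or D2L, 10 μg protein per well. Compounds incubated with radioligand (KD 0.09 nM) in Tris buffer pH 7.4 with 0.025% BSA, 120 minutes at 37° C. Filtration and scintillation counting; Ki by Cheng–Prusoff.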
`O=C(O)c1ccc(N2CN(c3ccccc3)C3(CCN(CCCC(=O)c4ccccc4)CC3)C2=O)cc1` [Compound 182, 4-(4-Cho-8-(4-oxo-4-phenylbutyl)-1-phenyl-1,3,8-triazaspiro[4.5]decan-3-yl)benzoic acid, hydrochloride] gave an IC50 of less than 10 nM.
Work on `CS(=O)(=O)Nc1ccc(CN2CN(c3ccccc3)C3(CCN(CCCC(=O)c4ccccc4)CC3)C2=O)cc1` [Compound 186, N-(4-((4-oxo-8-(4-oxo-4-phenylbutyl)-1-phenyl-1,3,8-triazaspiro[4.5]decan-3-yl)methyl)phenyl)methanesulfonamide] yielded an IC50 of less than 10 nM.
With `CS(=O)(=O)Nc1cccc(N2CN(c3ccccc3)C3(CCN(CCCC(=O)c4ccc(F)cc4)CC3)C2=O)c1` [Compound 211] the IC50 was less than 10 nM.
Work on `CS(=O)(=O)Nc1cccc(CN2CN(c3ccccc3)C3(CCN(CCCN4C(=O)C5(CC5)c5ccccc54)CC3)C2=O)c1` [Compound 212, N-(3-((4-Oxo-8-(3-(2′-oxospiro[cyclopropane-1,3′-indoline]-1′-yl)propyl)-1-phenyl-1,3,8-triazaspiro[4.5]decan-3-yl)methyl)phenyl)methanesulfonamide] yielded an IC50 of less than 10 nM.
For `CS(=O)(=O)Nc1cccc(CN2CN(c3ccccc3)C3(CCN(CCCN4C(=O)Cc5ccccc54)CC3)C2=O)c1` [Compound 213, N-(3-((4-Cho-8-(3-(2-oxoindolin-1-yl)propyl)-1-phenyl-1,3,8-triazaspiro[4.5]decan-3-yl)methyl)phenyl)methanesulfonamide], the IC50 was less than 10 nM.
Work on `CS(=O)(=O)Nc1ccc(N2CN(c3ccccc3)C3(CCN(CCCC(=O)c4ccc(F)cc4)CC3)C2=O)cc1` [Compound 214, N-(4-(8-(4-(4-Fluorophenyl)-4-oxobutyl)-4-oxo-1-phenyl-1,3,8-triazaspiro[4.5]decan-3-yl)phenyl)methanesulfonamide] yielded an IC50 of less than 10 nM.
`CS(=O)(=O)Nc1ccc(N2CN(c3ccccc3)C3(CCN(CCCN4C(=O)Cc5ccccc54)CC3)C2=O)cc1` [Compound 215, N-(4-(4-oxo-8-(3-(2-oxoindolin-1-yl)propyl)-1-phenyl-1,3,8-triazaspiro[4.5]decan-3-yl)phenyl)methanesulfonamide] was tested, and the IC50 was less than 10 nM.
With `CS(=O)(=O)Nc1ccc(N2CN(c3ccccc3)C3(CCN(CCCN4C(=O)C5(CC5)c5ccccc54)CC3)C2=O)cc1` [Compound 216, N-(4-(4-Oxo-8-(3-(2′-oxospiro[cyclopropane-1,3′-indoline]-1′-yl)propyl)-1-phenyl-1,3,8-triazaspiro[4.5]decan-3-yl)phenyl)methanesulfonamide] the IC50 was less than 10 nM.
`CC1(C)C(=O)N(CCCN2CCC3(CC2)C(=O)N(c2ccc(NS(C)(=O)=O)cc2)CN3c2ccccc2)c2ccccc21` [Compound 217, N-(4-(8-(3-(3,3-Dimethyl-2-oxoindolin-1-yl)propyl)-4-oxo-1-phenyl-1,3,8-triazaspiro[4.5]decan-3-yl)phenyl)methanesulfonamide] gave an IC50 of less than 10 nM.
In the case of `O=C(CCCN1CCC2(CC1)C(=O)N(Cc1ccccc1C(=O)O)CN2C1CCCCC1)c1ccccc1` [Compound 218, 2-((1-Cyclohexyl-4-oxo-8-(4-oxo-4-phenylbutyl)-1,3,8-triazaspiro[4.5]decan-3-yl)methyl)benzoic acid, hydrochloride], the IC50 is reported as less than 10 nM.
